One test has as its system HeLa. The experiment in a line: Cytotoxicity against human HeLa cells by MTT assay. It is filed as functional, cell-based. For orientation: Tetrazolium assays rely on reduction of a dye to a coloured formazan, in cell work by metabolically active cells.
For the next test, the system named is BT-20. Put plainly: Growth inhibition of human BT20 cells by MTT assay. In kind it is functional, cell-based.
The test system of a further test is Biomphalaria glabrata. Put plainly: Molluscicidal activity against Biomphalaria glabrata. In kind it is functional.

In brackets after ≈: the same amount, converted by molar mass. Activity calls are given as the source filed them. The calls are words filed in the database; no cut-off is given here.

As to `COc1cc2[nH]c3c(OC)c(OC)ccc3c(=O)c2c(OC)c1OC` [CUSCULINE], it took 8.5 µg/mL (≈ 24.6 µM) to reach half-maximal inhibition in the test on HeLa (IC50). Also, the “growth inhibition (GI)” value in the test with BT-20 is “Active”. Also, the median lethal concentration (LC50) – broadly, the concentration lethal to half of the exposed cells or organisms – with Biomphalaria glabrata was 20 µg/mL (≈ 57.9 µM).
`COc1cc2[nH]c3c(OC)c(OC)ccc3c(=O)c2c(O)c1OC` [CUSPANINE]: the IC50 (commonly the concentration needed to halve the response being measured) in the test on HeLa is 2.5 µg/mL (≈ 7.55 µM). Besides, in the test on BT-20, the “growth inhibition (GI)” value was “Active”. In the test on Biomphalaria glabrata, this molecule registered an LC50 of 5 µg/mL (≈ 15.1 µM).
